From US11413273B2, “Prophylactic or therapeutic agent for pulmonary hypertension comprising unsaturated 5-membered heterocycle-containing compound” (TOHOKU UNIVERSITY, priority 2016, dated 2022)

Legend:
[1] = tested on: pulmonary artery smooth muscle cells derived from patients with idiopathic pulmonary arterial hypertension (IPAH-PASMCs); assay: ability to suppress the proliferation of pulmonary artery smooth muscle cells from patients with pulmonary hypertension (MTT assay); type: cell-based, human; settings: for day 2/day 0 cell number ratio (MTT cell viability): 48 hours, IPAH-PASMC line 1, 10% FBS control 1.40; for suppressive effect on the proliferation of pulmonary artery smooth muscle cells: same method as Example 1, data not shown
Experimental: The following compounds were used to assess the abilities of these compounds to suppress the proliferation of pulmonary artery smooth muscle cells from patients with pulmonary hypertension (IPAH-PASMC line: 1)
Those compounds were obtained by synthesis in the Faculty of Pharmaceutical Sciences, Tohoku University. Specifically, first, 66 μl each of pulmonary artery smooth muscle cells derived from patients with idiopathic pulmonary arterial hypertension (IPAH-PASMCs) suspended in a 10% FBS medium (DMEM supplemented with 10% FBS) were seeded in a 96-well plate at 50,000 cells/ml (day −1). 24 Hours after the cell seeding (the time point was defined as day 0), 33 μl each of 300 nM, 3 μM, and 15 μM solutions of CEL-1 to CEL-8, CEL-10, CEL-13 to CEL-15, and CEL-19 in 10% FBS containing 1% DMSO were added to the wells so that the final concentrations were 100 nM, 1 μM, and 5 μM, respectively. As a control, 33 μl of 10% FBS containing 1% DMSO was added in place of CEL-1 to CEL-8, CEL-10, CEL-13 to CEL-15, and CEL-19. On day 0 (immediately before the addition of each of CEL-1 to CEL-8, CEL-10, CEL-13 to CEL-15, and CEL-19), a cell viability was confirmed by performing CellTiter 96 (trademark) AQueous One Solution Cell Proliferation Assay, promega MTT assay. Further, 48 hours after the addition of each of CEL-1 to CEL-8, CEL-10, CEL-13 to CEL-15, and CEL-19 (day 2), the MTT assay was performed again to observe a change in cell viability. Thus, a cell proliferation-suppressing effect was assessed.
In addition, in the case where R^2 in the general formula (I) represents an alkyl group, in order to explore an association between the length of the alkyl group and a pulmonary artery smooth muscle cell proliferation-suppressing effect, a test on an ability to suppress the proliferation of the pulmonary artery smooth muscle cells from patients with pulmonary hypertension (IPAH-PASMC line:1) was performed three times, and the lengths of alkyl groups of the respective compounds and the results of stimulation with the compounds at a concentration of 5 μM for 48 hours (averages of day 2/day 0 cell number ratios) were shown graphically. A Pearson's correlation test was performed on the lengths of the alkyl groups and the day 2/day 0 cell number ratios. As a result, a significant correlation was found with a P-value of 0.0298.

[2] = biological target: zinc finger protein ZFC3H1 (Homo sapiens, UniProt O60293); settings: Non-patent Literature 2; cited from earlier work
[3] = tested on: transcription factor NF-κB; settings: Non-patent Literature 2 and 3; cited from earlier work
[4] = tested on: hypoxia-induced pulmonary hypertension mouse model; assay: hypoxia-induced pulmonary hypertension mouse model; type: in vivo, C57BL/6 mice; settings: 10 mg/kg/day continuous subcutaneous infusion
Experimental: Next, the therapeutic effect of CEL-3 on pulmonary hypertension was assessed in vivo. Specifically, the influence of CEL-3 on a hypoxia-induced pulmonary hypertension mouse model was investigated. The pulmonary hypertension mouse model was generated by breeding 9-week-old male C57BL/6 mice (n=14) in a hypoxic chamber having an oxygen concentration of from 8% to 12%. Before being housed in the hypoxic chamber, the mice were implanted with an osmotic pump containing CEL-3 dissolved with 50% DMSO, and were administered CEL-3 at 10 mg/kg/day by continuous subcutaneous infusion. The Vehicle group was administered a DMSO solution at the same concentration with an osmotic pump. The mice were bred in the hypoxic chamber for 3 weeks and then sacrificed to measure a right ventricular systolic pressure (RVSP) with a pressure catheter 1.2F (Transonic Scisense, US). In addition, after formalin fixation, the right ventricle and the left ventricle were separated to measure a right ventricle/(left ventricle plus septum) weight ratio RV/[LV+S]). Then, the extent of pulmonary hypertension was assessed on the basis of those results. The body weights of the Vehicle group and the CEL-3 administration group before the test were each 25.6±0.3 g. In addition, the body weights of the Vehicle group and the CEL-3 administration group after the test were 24.2±0.8 g and 23.9±0.7 g, respectively.

[5] = tested on: SU5416/hypoxia-induced pulmonary hypertension rat model; assay: SU5416/hypoxia-induced pulmonary hypertension rat model; type: in vivo, Sprague-Dawley rats; settings: 3 mg/kg intraperitoneally daily for 2 weeks
Experimental: The pulmonary hypertension rat model was generated by: subcutaneously injecting 6-week-old male Sprague-Dawley rats ([…]) with SU5416 at 20 mg/kg; and then breeding the rats in a hypoxic chamber having an oxygen concentration of from 8% to 12% for 3 weeks followed by breeding the rats under normoxia for 2 weeks. After the hypoxic stimulation for 3 weeks, the rats were intraperitoneally injected with CEL-3 dissolved with 10% DMSO at 3 mg/kg daily for 2 weeks. The Vehicle group was intraperitoneally injected with a DMSO solution at the same concentration. The rats were treated with CEL-3 for 2 weeks and then sacrificed to measure a right ventricular systolic pressure (RVSP) with a pressure catheter 1.6F (Transonic Scisense, US). In addition, after formalin fixation, the right ventricle and the left ventricle were separated to measure a right ventricle/(left ventricle plus septum) weight ratio (RV/[LV+S]). Then, the extent of pulmonary hypertension was assessed on the basis of those results. The body weights of the Control group, the Vehicle group, and the CEL-3 administration group before the test were 160.8±1.7 g, 163.4±2.5 g, and 158.9±1.9 g, respectively. In addition, the body weights of the Control group, the Vehicle group, and the CEL-3 administration group after the test were 355.4±5.1 g, 264.91±9.3 g, and 260.0±11.1 g, respectively.

[6] = tested on: pulmonary artery smooth muscle cells; settings: previous report, Non-patent Literature 3; cited from earlier work
[7] = final concentration 100 nm (so in the source)
[8] = 3 weeks hypoxia, vs control group (FIG. 3)

zinc finger protein ZFC3H1, sequence (O60293 whole entry): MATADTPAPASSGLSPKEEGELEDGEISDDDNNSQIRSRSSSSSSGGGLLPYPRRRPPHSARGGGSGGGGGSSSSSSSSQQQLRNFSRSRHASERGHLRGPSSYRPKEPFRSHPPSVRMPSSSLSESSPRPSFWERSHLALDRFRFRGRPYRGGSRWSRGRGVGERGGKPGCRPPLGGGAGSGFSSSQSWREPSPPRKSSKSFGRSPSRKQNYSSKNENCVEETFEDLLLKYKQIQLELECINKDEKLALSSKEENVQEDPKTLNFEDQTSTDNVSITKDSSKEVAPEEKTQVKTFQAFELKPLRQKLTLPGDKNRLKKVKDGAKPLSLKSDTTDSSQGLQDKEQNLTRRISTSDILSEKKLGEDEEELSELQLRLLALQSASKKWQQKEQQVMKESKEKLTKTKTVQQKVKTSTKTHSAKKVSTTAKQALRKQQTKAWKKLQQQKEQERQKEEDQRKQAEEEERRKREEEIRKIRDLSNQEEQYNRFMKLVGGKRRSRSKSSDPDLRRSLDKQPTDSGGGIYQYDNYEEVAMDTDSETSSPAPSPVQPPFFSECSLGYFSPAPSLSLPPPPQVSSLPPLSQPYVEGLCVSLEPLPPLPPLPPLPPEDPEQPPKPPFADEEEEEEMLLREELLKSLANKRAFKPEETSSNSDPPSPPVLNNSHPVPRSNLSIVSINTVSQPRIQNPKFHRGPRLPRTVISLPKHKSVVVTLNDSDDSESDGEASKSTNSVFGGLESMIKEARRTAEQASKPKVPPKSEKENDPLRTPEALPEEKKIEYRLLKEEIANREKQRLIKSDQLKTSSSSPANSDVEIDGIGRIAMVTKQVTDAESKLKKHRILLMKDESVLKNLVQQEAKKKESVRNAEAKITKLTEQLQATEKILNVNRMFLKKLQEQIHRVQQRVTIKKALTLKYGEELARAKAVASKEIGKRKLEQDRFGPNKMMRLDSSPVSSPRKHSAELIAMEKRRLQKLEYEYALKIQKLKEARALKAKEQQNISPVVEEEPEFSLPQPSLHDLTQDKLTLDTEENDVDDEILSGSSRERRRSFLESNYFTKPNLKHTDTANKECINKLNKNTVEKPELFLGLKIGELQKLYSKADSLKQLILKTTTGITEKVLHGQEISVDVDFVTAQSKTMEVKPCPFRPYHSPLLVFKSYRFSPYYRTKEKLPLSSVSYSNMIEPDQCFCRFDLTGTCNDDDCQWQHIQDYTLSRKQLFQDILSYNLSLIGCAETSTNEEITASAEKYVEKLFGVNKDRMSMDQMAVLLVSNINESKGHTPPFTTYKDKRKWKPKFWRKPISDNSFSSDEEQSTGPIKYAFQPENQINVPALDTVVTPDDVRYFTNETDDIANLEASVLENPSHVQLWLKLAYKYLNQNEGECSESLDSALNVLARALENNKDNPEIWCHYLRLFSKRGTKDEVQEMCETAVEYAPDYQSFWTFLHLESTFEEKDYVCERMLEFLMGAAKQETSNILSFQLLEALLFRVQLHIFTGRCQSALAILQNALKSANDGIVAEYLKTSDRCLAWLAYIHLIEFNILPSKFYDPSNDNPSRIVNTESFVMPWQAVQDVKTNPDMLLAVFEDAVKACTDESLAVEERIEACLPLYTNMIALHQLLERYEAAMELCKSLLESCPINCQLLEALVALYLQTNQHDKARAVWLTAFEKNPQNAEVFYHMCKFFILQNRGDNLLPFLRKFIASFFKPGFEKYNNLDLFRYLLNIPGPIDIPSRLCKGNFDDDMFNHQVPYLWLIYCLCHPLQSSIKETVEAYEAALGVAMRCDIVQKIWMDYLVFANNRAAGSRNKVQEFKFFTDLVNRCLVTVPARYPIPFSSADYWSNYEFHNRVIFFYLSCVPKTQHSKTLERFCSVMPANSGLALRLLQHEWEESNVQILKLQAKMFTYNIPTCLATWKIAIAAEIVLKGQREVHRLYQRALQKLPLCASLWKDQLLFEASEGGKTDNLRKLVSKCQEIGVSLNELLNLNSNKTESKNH

| SMILES | day 2/day 0 cell number ratio (MTT cell viability) ([1]; final concentration 1 μM) | day 2/day 0 cell number ratio (MTT cell viability) ([1]; final concentration 5 μM) | day 2/day 0 cell number ratio (MTT cell viability) [1, 7] | also measured |
| --- | --- | --- | --- | --- |
| CCCCCCCCc1cc(Cl)c(O)c(C(=O)c2cc(Cl)c(Cl)[nH]2)c1O [CEL-7] | 0.84 | 0.52 | 1.27 | – |
| CCCCCCc1cc(Cl)c(O)c(C(=O)c2cc(Cl)c(Cl)[nH]2)c1O [CEL-1, celastramycin] | 0.83 | 0.52 | 1.46 | binding to ZFC3H1 [2]: binds to a zinc finger protein ZFC3H1; NF-κB-inhibiting action [3]: inhibit signal transduction in which a transcription factor NF-κB is involved |
| CCCCCCc1cc(C)c(O)c(C(=O)c2cc(Cl)c(Cl)[nH]2)c1O [CEL-10] | 0.68 | 0.48 | 1.16 | – |
| CCCCCCCc1cc(Cl)c(O)c(C(=O)c2cc(Cl)c(Cl)[nH]2)c1O [CEL-6] | 0.77 | 0.54 | 1.23 | – |
| CCCCCCc1cc(Cl)c(O)c(C(=O)c2cc(Br)c(Br)[nH]2)c1O [CEL-13] | 0.72 | 0.51 | 1.20 | – |
| Cc1cc(Cl)c(O)c(C(=O)c2cc(Cl)c(Cl)[nH]2)c1O [CEL-3] | 0.99 | 0.81 | 1.25 | increase in right ventricle/(left ventricle plus septum) weight ratio (RV/[LV+S]) [4, 8]: suppressed; increase in right ventricular systolic pressure (RVSP) [4, 8]: suppressed; body weight after the test ([4]; 3 weeks, Vehicle group 24.2±0.8 g): 23.9 ± 0.7 g; increase in right ventricle/(left ventricle plus septum) weight ratio (RV/[LV+S]) ([5]; vs control group (FIG. 4)): suppressed; increase in right ventricular systolic pressure (RVSP) ([5]; vs control group (FIG. 4)): suppressed; body weight after the test ([5]; Vehicle group 264.91±9.3 g): 260.0 ± 11.1 g |
| O=C(/C=C/c1ccc(O)c(O)c1)OCCc1ccccc1 [caffeic acid phenethyl ester, reference compound] | – | – | – | suppressive effect on the proliferation of pulmonary artery smooth muscle cells ([1]; final concentration 5 μM): not sufficiently suppressed |
| CCCCCCc1cc(Br)c(O)c(C(=O)c2cc(Cl)c(Cl)[nH]2)c1O [CEL-15] | 0.78 | 0.54 | 1.26 | – |
| CCCCc1cc(Cl)c(O)c(C(=O)c2cc(Cl)c(Cl)[nH]2)c1O [CEL-4] | 0.79 | 0.53 | 1.24 | – |
| CCCc1cc(Cl)c(O)c(C(=O)c2ccc(Br)[nH]2)c1O [CEL-14] | 1.35 | 0.88 | 1.37 | – |
| O=C(c1cc(Cl)c(Cl)[nH]1)c1c(O)ccc(Cl)c1O [CEL-2] | 1.36 | 0.87 | 1.37 | – |
| CCCCCCCCCCCCc1cc(Cl)c(O)c(C(=O)c2cc(Cl)c(Cl)[nH]2)c1O [CEL-8] | 0.74 | 0.47 | 1.13 | – |
| CCCCCc1cc(Cl)c(O)c(C(=O)c2cc(Cl)c(Cl)[nH]2)c1O [CEL-5] | 0.79 | 0.53 | 1.25 | – |
| Cc1ccc(S(=O)(=O)N[C@@H](Cc2ccccc2)C(=O)CCl)cc1 [N-p-tosyl-L-phenylalanine chloromethyl ketone, reference compound] | – | – | – | suppressive effect on the proliferation of pulmonary artery smooth muscle cells ([1]; final concentration 5 μM): not sufficiently suppressed |
| Cc1ccc(S(=O)(=O)N[C@@H](CCCCN)C(=O)CCl)cc1.Cl [Nα-p-tosyl-L-lysine chloromethyl ketone hydrochloride, reference compound] | – | – | – | suppressive effect on the proliferation of pulmonary artery smooth muscle cells ([1]; final concentration 5 μM): not sufficiently suppressed |
| CCCCCCc1cc(Cl)c(O)c(C(=O)c2c[nH]c(Cl)c2Cl)c1O [CEL-19] | 1.24 | 0.94 | 1.31 | – |
| O=C(Nc1cc(C(F)(F)F)cc(C(F)(F)F)c1)c1cc(Cl)ccc1O [IMD-0354, N-[3,5-bis(trifluoromethyl)phenyl]-5-chloro-2-hydroxybenzamide, reference compound] | – | – | – | NF-κB-inhibiting action [3]: has an NF-κB-inhibiting action; suppression of proliferation of pulmonary artery smooth muscle cells [6]: suppresses the proliferation of pulmonary artery smooth muscle cells |
